# Where no end group is shown, it is not given here.
# Tests used:
# Format in all cases: binding
# transferrin = transferrin (Homo sapiens, UniProt P02787); assay: Equilibrium SPR affinity of TRF26 peptides for immobilized transferrin; conditions: peptide concentration series
# TNF-α [1] = biological target: T1, TNF-α (Homo sapiens, UniProt P01375); assay: Equilibrium SPR affinity of peptides for captured TNF-α
# Description: Point-variant libraries were prepared in 96-well stock plates as described in the supporting information. From the stock plate, peptides were diluted to 50 µM or 10 µM in Biacore HBS-EP buffer (GE Healthcare, Piscataway, NJ) containing 1 mg/ml carboxymethyl-dextran (Sigma-Aldrich, St. Louis, MO) to reduce non-specific binding to the CM-5 SPR chip surface. Biotinylated TNF-α was captured on a neutravidin coated Biacore CM-5 chip (GE Healthcare, Piscataway, NJ) at different levels on spots 1, 2, 4, and 5 across all four flow cells corresponding to a low to moderate Rmax range of 40-200 RU. Spot 3 on all flow cells contained only immobilized neutravidin and served as a reference spot.
# Responses were normalized to the predicted Rmax so that results from different TNF-α capture levels could be directly compared.
# Sequences containing multiple enhancing point variations were synthesized using standard solid-phase synthesis and purified. Multiple variant affinities were determined with the same protocol used for point-variant affinities.
# Peptide binding energies and dissociation constants (Kd) were calculated separately as a mean and standard error of all replicate measurements.
# Text S1: Experimental Details […]
# Point-Variant Libraries. Point-variant libraries were ordered in PEPScreen® 96 -vial format from Sigma-Genosys (St. Louis, MO). The purity of each peptide in the library was […]
# was dissolved in HBS-N buffer to an approximate 2 mg/ml concentration, each vial was centrifuged to spin insoluble peptide to the bottom of the vial. Supernatant was collected from each vial and transferred to a 96-well plate, peptide supernatant concentrations in each well was measured using A280 absorbance and a predicted molar extinction coefficient (ε280) based on the specific peptide sequence. Based on the supernatant concentrations, all the […]
# plate(s). All SPR screens of the point-variants were done using dilutions from this stock […]
# SPR Assays. SPR Chip Preparation. Unless otherwise noted, SPR immobilization was done on a Biacore A100 SPR system (GE Healthcare, Piscataway, NJ). A standard coupling protocol was employed to immobilize a neutravidin capture surface via exposed primary amines. The immobilization was performed at 25 °C using Sodium Acetate (10 mM in 150 mM Sodium Chloride, pH 4.5) as the running buffer. Addressable spots 1, 2, 3 on each of the four flow cells of the CM-5 dextran SPR chip (GE Healthcare, Piscataway, NJ) were activated by a 10 minute injection of a freshly prepared 1:1 solution of 400 mM 1-ethyl-3-(3-dimethylaminopropyl)-carbodimide (EDC): 100 mM N-hydroxysuccimide (NHS) in […]
# TNF-α [2] = biological target: T1, TNF-α; assay: Kinetic fits of SPR sensorgrams; conditions: for koff / kon: kinetic fits of SPR sensorgrams across a concentration series; for Kd: from koff and kon of SPR kinetic fits
# Description: Kinetic fits of the TNF1 and TNF1-opt SPR sensorgrams (Figure S7 in File S1) indicate that TNF1-opt has approximately an order of magnitude or more improvement in both on-rate (kon), and off-rate (koff), when compared to TNF1 (TNF1: koff = 1.6±0.5 s^−1, kon = 5.0±1.7×10^3 M^−1s^−1, TNF1-opt: koff = 0.2±0.02 s^−1 kon = 2.6±0.2×10^5 M^−1s^−1).
# Figure S7. SPR sensorgram kinetic fits for TNF1 and TNF1-opt. On-rates (kon), off-rates (koff) and dissociation constants (Kd) shown were determined from kinetic fits of several sensorgrams across the same concentration series used in equilibrium binding response analysis.
# (1 picture or pasted object on this page, not shown here)
# TNF-α [3] = biological target: T1, TNF-α; assay: Solution-phase fluorescence anisotropy of labeled TNF1-opt with TNF-α; conditions: peptide labeled at C-terminal cysteine fixed at 100 nM, TNF-α varied 80 nM to 10 µM, triplicate
# Description: Figure 4 Equilibrium binding isotherms for TNF1-opt. Outer plot: SPR normalized replicate responses performed with TNF-α captured on the SPR chip surface and variable TNF-opt concentrations flowed over the surface. Inset plot: Solution-phase fluorescence anisotropy measurements performed in triplicate with TNF1-opt labeled at the C-terminal cysteine, TNF-opt concentration was fixed at 100 nM while TNF-α concentration was varied. TNF1-opt sensorgrams are available in Figure S5 in File S1, SPR binding isotherms for all enhanced variants tested are available in Figure S6 in File S1.
# TNF1 and TNF4 Lead Generation from a […] Random Peptide Screen. Peptide Library and SPR Chip Preparation. Random 20-mer peptides were prepared in 384-well plates and diluted with Biacore HBS-EP buffer (GE Healthcare, Piscataway, NJ) containing 1 mg/ml carboxymethyl-dextran (Sigma-Aldrich, St. Louis, MO) to reduce non-specific binding to the CM-5 SPR chip surface. […]
# TNF1-opt Fluorescence Polarization Affinity Characterization. Fluorescence anisotropy measurements were performed on a custom fluorimeter with an orthogonal optical configuration. […]
# 200 nM TNF-α and 200 nM E.coli lysate (calculated as a total protein concentration in the lysate) labeled with Alexa-555 and Alexa-647 (Invitrogen, Carlsbad, CA) respectively in PBST buffer containing 1% BSA was incubated with the microarray for 1 hour in a humidity chamber. […]
# [4] = equilibrium SPR, TNF-α captured on chip, peptide concentration series, mean ± standard error of several replicates, SEM
# [5] = equilibrium SPR binding responses, TNF-α
# transferrin, sequence (P02787 20-698, species assumed): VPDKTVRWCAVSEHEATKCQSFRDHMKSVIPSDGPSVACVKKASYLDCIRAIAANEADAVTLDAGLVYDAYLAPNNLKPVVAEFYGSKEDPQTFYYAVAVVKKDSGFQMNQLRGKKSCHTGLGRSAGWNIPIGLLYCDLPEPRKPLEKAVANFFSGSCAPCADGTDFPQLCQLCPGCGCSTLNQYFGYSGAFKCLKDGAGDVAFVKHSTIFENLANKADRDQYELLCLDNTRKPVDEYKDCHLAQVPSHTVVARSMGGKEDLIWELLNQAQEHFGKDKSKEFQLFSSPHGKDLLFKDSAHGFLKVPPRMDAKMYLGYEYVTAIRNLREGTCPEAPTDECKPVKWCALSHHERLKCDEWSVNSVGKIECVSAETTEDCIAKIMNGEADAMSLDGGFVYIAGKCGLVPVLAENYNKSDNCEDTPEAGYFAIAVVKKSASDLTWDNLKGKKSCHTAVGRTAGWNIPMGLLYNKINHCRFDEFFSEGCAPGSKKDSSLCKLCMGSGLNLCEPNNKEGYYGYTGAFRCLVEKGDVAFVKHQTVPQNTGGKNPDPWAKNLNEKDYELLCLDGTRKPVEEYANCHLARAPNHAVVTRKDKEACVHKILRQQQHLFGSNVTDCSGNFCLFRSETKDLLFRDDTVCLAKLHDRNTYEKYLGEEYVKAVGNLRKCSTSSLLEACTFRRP
# T1 sequence (P01375 77-233 limits assumed): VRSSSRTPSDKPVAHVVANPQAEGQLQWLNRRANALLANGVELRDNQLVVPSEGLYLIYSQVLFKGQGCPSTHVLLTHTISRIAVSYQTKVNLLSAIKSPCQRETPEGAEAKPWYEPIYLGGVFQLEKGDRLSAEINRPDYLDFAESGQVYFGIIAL
sequence,measurement,setting,value
AHKVVPQRQIRFAYNRYGSC [Peptide H12F],Kd,transferrin,9.7 ± 1.6 µM
AHKVVPQRQIRHAYNRYGSC [TRF26],Kd,transferrin,85 ± 14 µM
AHKVVYQRQIRFAYNRYGSC [P6Y+H12F],Kd,transferrin,0.5 ± 0.1 µM
AHKVVYQRQIRHAYNRYGSC [Peptide P6Y],Kd,transferrin,8.6 ± 1.6 µM
FERDPLKMPWSFLQSRQGSC [Peptide M7K],Kd,TNF-α [1]; [4],57 ± 20 µM
FERDPLMMPWKFLQSRQGSC [Peptide S11K],Kd,TNF-α [1]; [4],40 ± 7.2 µM
FERDPLMMPWSFLQSRQGSC [TNF1],koff,TNF-α [2],1.6 ± 0.5 s⁻¹
same,kon,TNF-α [2],5000 ± 1.7e+06 M⁻¹ s⁻¹
same,Kd,TNF-α [1]; [4],160 ± 19 µM
FERDYLKMPWSFLQSRQGSC [P5Y+M7K],Kd,TNF-α [1]; [4],27 ± 1.8 µM
FERDYLMMPWKFLQSRQGSC [P5Y+S11K],Kd,TNF-α [1]; [4],24 ± 1.4 µM
FERDYLMMPWSFLQSRQGSC [Peptide P5Y],Kd,TNF-α [1]; [4],58 ± 3.4 µM
FERSYLKMPWKFLQSRQGSC [TNF1-opt],Kd,TNF-α [2]; read-out: Kd calculated from rate constants,0.7 ± 0.02 µM
same,koff,TNF-α [2],0.2 ± 0.02 s⁻¹
same,kon,TNF-α [2],260000 ± 2e+09 M⁻¹ s⁻¹
same,Kd,TNF-α [1]; [4],1.6 ± 0.3 µM
same,Kd,TNF-α [3],1.1 ± 0.2 µM
FERSYLKMPWSFLQSRQGSC [D4S+P5Y+M7K],Kd,TNF-α [1]; [4],14 ± 1 µM
FERSYLMMPWKFLQSRQGSC [D4S+P5Y+S11K],Kd,TNF-α [1]; [4],7 ± 0.5 µM
FERYPLKMPWSFLQSRQGSC [D4Y+M7K],Kd,TNF-α [1]; [4],17 ± 1.9 µM
FERYPLMMPWKFLQSRQGSC [D4Y+S11K],Kd,TNF-α [1]; [4],9.3 ± 0.7 µM
FERYPLMMPWSFLQSRQGSC [Peptide D4Y],Kd,TNF-α [1]; [4],44 ± 4.8 µM
WGPSDAFKITRFHQQSSGSC [Peptide Y1W],Kd,TNF-α [1]; [5],0.38 ± 0.08 µM
WGPSYAFKITRFHQQSSGSC [Y1W+D5Y],Kd,TNF-α [1]; [5],0.2 ± 0.03 µM
WGPSYAFKIYRFHQQSSGSC [TNF4-opt],Kd,TNF-α [2]; read-out: Kd resulting from rate constants,0.13 ± 0.03 µM
same,koff,TNF-α [2],0.0075 ± 8e-07 s⁻¹
same,kon,TNF-α [2],58000 ± 1.2e+08 M⁻¹ s⁻¹
same,Kd,TNF-α [1]; [5],0.09 ± 0.02 µM
YGPSDAFKITRFHQQSSGSC [TNF4],Kd,TNF-α [1]; [4],23 ± 3.5 µM
YGPSDAFKIYRFHQQSSGSC [Peptide T10Y],Kd,TNF-α [1]; [5],0.31 ± 0.01 µM
YGPSYAFKITRFHQQSSGSC [Peptide D5Y],Kd,TNF-α [1]; [5],0.28 ± 0.04 µM
